# Data reported in patent US11053219B2, “Substituted pyridines as TYK2 inhibitors” (FronThera U.S. Pharmaceuticals LLC, priority 2018, dated 2021).
# Key:
# [1] = system: GM-CSF-induced pSTAT5 in human PBMC; assay: GM-CSF-induced pSTAT5 in human PBMC; type: cell-based; details: GM-CSF 10 ng/ml
# Protocol: (§1) Fresh Human PBMCs were resuspended in RPMI 1640 medium with 10% FBS. Cells were seeded in a round bottom 96-well plate at the concentration of 200,000 cells/well. A 10-point dilution series of test compound (top dose 10 uM, 1:5 dilution) was added to the well using the liquid dispenser (Tecan D300e) and incubated for 1 hour at 37 C. Then human IL-12 recombinant protein (R&D Systems) was added to the well at the final concentration of 10 ng/ml and incubated for 15 minutes at 37 C. Cell lysates were prepared and analyzed by Phospho STAT4 (Tyr693) Kit (Meso Scale Discovery) following manufacturer's protocol.
# (§2) For calculation of the inhibition rate, the relative pSTAT4 signal of each well=pSTAT4 signal of each well−the average pSTAT4 signal of baseline. The inhibition %=(the average pSTAT4 signal of IL-12 treatment wells−the relative of pSTAT4 signal in each compound containing well)/the average pSTAT4 signal of IL-12 treatment wells*100%
# (§3) The curve was plotted as the inhibition % (y-axis) vs. compounds concentration (x-axis) and was fitted with log(inhibitor) vs. normalized response—Variable slope by GraphPad Prism7.0. Control is BMS-986165:
# (§4) Similar to the method for IL-12 induced pSTAT4 in human PBMC described above, these assays were performed to check if test compounds have cross-activity to JAK1. JAK2 and JAK3 pathways in human PBMC. The procedure is as described with change of stimuli to 10 ng/ml of GM-CSF or 20 ng/ml of IL-2.
# [2] = Pharmacokinetic study in Beagle dogs; type: in vivo; details: dog, plasma; for Vd: read-out: Vdss
# Protocol: (§5) The pharmacokinetics of test compounds were evaluated in male C57BL/6 mice, Sprague Dawley rats, Beagle dogs, and cynomolgus monkeys when administered via oral gavage and IV injection. The animals were fasted overnight before administration. Plasma samples were collected predose and at 0.5, 1, 3, 6, 9, 12, and 24 hours postdose. The samples were analyzed by LC/MS/MS and the concentration of test compound at each timepoint was determined by linear regression. Pharmacokinetic parameters were calculated from the plasma concentrations using Pheonix WinNonlin.
# [3] = Pharmacokinetic study in Sprague Dawley rats; type: in vivo; details: rat, plasma; for Vd: read-out: Vdss
# Protocol: as §5
# [4] = system: IL-2-induced pSTAT5 in human PBMC; assay: IL-2-induced pSTAT5 in human PBMC; type: cell-based; details: IL-2 20 ng/ml
# Protocol: as §1, §2, §3, §4
# [5] = Pharmacokinetic study in cynomolgus monkeys; type: in vivo; details: cynomolgus monkey, plasma
# Protocol: as §5
# [6] = Pharmacokinetic study in C57BL/6 mice; type: in vivo; set-up: AUC: unit not given here; details: for Tmax / bioavailability / half-life / Cmax / clearance / Vd: male, mouse, plasma; for Vd: read-out: Vdss
# Protocol: as §5
# TYK2 (JH2 domain) = TYK2 (JH2 domain) (Homo sapiens (Human), UniProt P29597); assay: TYK2 JH2 domain binding assay (DiscoverX KINOMEscan); details: 11-point 3-fold dilution, duplicate
# Sequence of TYK2 (JH2 domain) (P29597 589-875): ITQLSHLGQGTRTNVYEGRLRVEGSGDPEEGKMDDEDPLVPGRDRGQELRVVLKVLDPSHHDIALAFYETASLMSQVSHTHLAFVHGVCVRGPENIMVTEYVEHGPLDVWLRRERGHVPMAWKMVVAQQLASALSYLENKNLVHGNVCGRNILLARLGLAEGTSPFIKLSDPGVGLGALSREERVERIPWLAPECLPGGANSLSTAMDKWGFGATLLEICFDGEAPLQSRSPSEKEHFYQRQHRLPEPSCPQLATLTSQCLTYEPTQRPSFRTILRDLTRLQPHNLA
# [7] = system: INFα induced pSTAT5 in human PBMC; assay: INFα induced pSTAT5 in human PBMC; type: cell-based; details: human PBMC, INFα 5000 units/ml; read-out: p-STAT5 IC50
# Protocol: Cells were seeded in a round bottom 96-well plate at the concentration of 200,000 cells/well. A 10-point dilution series of test compound (top dose 10 uM, 1:5 dilution) was added to the well using the liquid dispenser (Tecan D300e) and incubated for 1 hour at 37 C. Then human INFα recombinant protein (R&D Systems) was added to the well at the final concentration of 5000 units/ml and incubated for 15 minutes at 37 C. Cell lysates were prepared and analyzed by Phospho STAT3 (Tyr705) cellular kit (Cisbio) or Phospho STAT5 (Tyr693) Kit (Meso Scale Discovery) following manufacturer's protocol.
# For calculation of the inhibition rate, the relative pSTAT signal of each well=pSTAT signal of each well−the average pSTAT signal of baseline. The inhibition %=(the average pSTAT signal of INFα treatment wells−the relative of pSTAT signal in each compound containing well)/the average pSTAT signal of INFα treatment wells*100%
# JAK2 (JH1 domain) = JAK2 (JH1 domain) (Homo sapiens (Human), UniProt O60674); assay: JAK2 JH1 domain binding assay (KINOMEscan)
# Sequence of JAK2 (JH1 domain) (O60674 849-1124): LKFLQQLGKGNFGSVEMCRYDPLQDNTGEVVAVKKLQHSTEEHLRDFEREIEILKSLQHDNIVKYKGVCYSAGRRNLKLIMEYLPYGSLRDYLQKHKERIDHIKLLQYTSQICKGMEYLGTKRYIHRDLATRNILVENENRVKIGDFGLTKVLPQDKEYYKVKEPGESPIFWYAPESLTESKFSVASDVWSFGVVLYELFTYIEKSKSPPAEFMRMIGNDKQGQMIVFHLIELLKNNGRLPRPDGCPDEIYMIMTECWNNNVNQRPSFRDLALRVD
# JAK1 (JH2 domain) = JAK1 (JH2 domain) (Homo sapiens (Human), UniProt P23458); assay: JAK1 JH2 domain binding assay (KINOMEscan); details: KINOMEscan; read-out: JAK1 (JH2 domain) binding Kd
# Sequence of JAK1 (JH2 domain) (P23458 583-855): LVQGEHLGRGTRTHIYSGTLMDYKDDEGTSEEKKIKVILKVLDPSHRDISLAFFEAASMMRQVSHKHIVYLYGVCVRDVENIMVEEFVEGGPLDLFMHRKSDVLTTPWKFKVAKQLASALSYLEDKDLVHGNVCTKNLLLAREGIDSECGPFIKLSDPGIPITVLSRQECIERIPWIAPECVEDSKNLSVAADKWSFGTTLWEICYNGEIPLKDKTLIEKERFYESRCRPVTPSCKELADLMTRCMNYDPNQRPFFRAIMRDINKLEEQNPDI
# Protocol: The assay is performed by combining three components: DNA-tagged kinase; immobilized ligand; and a test compound. The ability of the test compound to compete with the immobilized ligand is measured via quantitative PCR of the DNA tag.
# The liganded beads were blocked with excess biotin and washed with blocking buffer (SeaBlock (Pierce), 1% BSA, 0.05% Tween 20, 1 mM DTT) to remove unbound ligand and to reduce non-specific binding. […] Test compounds were prepared as 111× stocks in 100% DMSO. All test compounds were shipped to DiscoverX in DMSO with concentration of 10 mM. Kds were determined using an 11-point 3-fold compound dilution series with three DMSO control points. Each compound was tested in duplicate. […] The compounds were then diluted directly into the assays such that the final concentration of DMSO was 0.9%. All reactions performed in polypropylene 384-well plate. Each was a final volume of 0.02 ml. […] The kinase concentration in the eluates was measured by qPCR.
# The amount of kinase measured by qPCR (Signal; y-axis) is plotted against the corresponding compound concentration in nM in log 10 scale (x-axis). Binding constants (Kds) were calculated with a standard dose-response curve using the Hill equation:
# Similar to the method for TYK2 JH2 binding described above, JAK1 JH2 and JAK2 JH1 domain binding assay was performed using DiscoverX's KINOMEscan™, but with change of kinase domain.
# [8] = Oral (2 mg/kg), read-out: C0 or Cmax (Cmax)
# [9] = Oral (5 mg/kg), read-out: C0 or Cmax (Cmax)
# [10] = iv, I.V. (1 mg/kg), read-out: C0 or Cmax (C0)
# [11] = Oral (2 mg/kg), NA: no detectable
# [12] = Oral (10 mg/kg), read-out: C0 or Cmax (Cmax)
# [13] = iv, I.V. (2 mg/kg), read-out: C0 or Cmax (C0)
smiles,measurement,setting,value
[2H]C([2H])([2H])CC(=O)c1cnc(NC(=O)C2CC2)cc1Nc1nccc(-c2ncn(C([2H])([2H])[2H])n2)c1OC [Example 200],IC50,[1],> 10000 nM
same,AUC,[2]; Oral (2 mg/kg),2620 ± 258 ng·h/mL
same,Tmax,[2]; Oral (2 mg/kg),1.33 h
same,bioavailability,[2]; Oral (2 mg/kg),82.9 ± 8.2%
same,half-life,[2]; Oral (2 mg/kg),8.51 ± 1.6 h
same,Cmax,[2]; [8],247 ± 17 ng/mL
same,AUC,"[2]; iv, I.V. (0.5 mg/kg)",790 ± 196 ng·h/mL
same,half-life,"[2]; iv, I.V. (0.5 mg/kg)",11.5 ± 1.6 h
same,Cmax,"[2]; iv, I.V. (0.5 mg/kg), read-out: C0 or Cmax (C0)",29.7 ± 14 ng/mL
same,Vd,"[2]; iv, I.V. (0.5 mg/kg)",8.37 ± 1.39 L/kg
same,AUC,[3]; Oral (5 mg/kg),3660 ± 684 ng·h/mL
same,Tmax,[3]; Oral (5 mg/kg),1 h
same,bioavailability,[3]; Oral (5 mg/kg),42.7 ± 8%
same,half-life,[3]; Oral (5 mg/kg),4.22 ± 3.6 h
same,Cmax,[3]; [9],948 ± 43 ng/mL
same,AUC,"[3]; iv, I.V. (1 mg/kg)",1710 ± 19 ng·h/mL
same,clearance,"[3]; iv, I.V. (1 mg/kg)",9.42 ± 0.022 mL/min/kg
same,half-life,"[3]; iv, I.V. (1 mg/kg)",1.58 ± 0.21 h
same,Cmax,[3]; [10],1030 ± 47 ng/mL
same,Vd,"[3]; iv, I.V. (1 mg/kg)",1.24 ± 0.065 L/kg
same,IC50,[4],1000 to 10000 nM
same,AUC,[5]; [11],4060 ± 251 ng·h/mL
same,Tmax,[5]; [11],2 h
same,bioavailability,[5]; [11],27.7 ± 1.7%
same,half-life,[5]; [11],8.6 ± 0.73 h
same,Cmax,"[5]; Oral (2 mg/kg), NA: no detectable, read-out: C0 or Cmax (Cmax)",384 ± 22 ng/mL
same,AUC,"[5]; iv, I.V. (1 mg/kg)",7320 ± 202 ng·h/mL
same,clearance,"[5]; iv, I.V. (1 mg/kg)",1.87 ± 0.21 mL/min/kg
same,half-life,"[5]; iv, I.V. (1 mg/kg)",9.35 ± 1.57 h
same,Cmax,[5]; [10],677 ± 81 ng/mL
same,Vd,"[5]; iv, I.V. (1 mg/kg), read-out: Vdss",1.45 ± 0.18 L/kg
same,AUC,[6]; I.V. (2 mg/kg),4475
same,AUC,[6]; Oral (10 mg/kg),19295
same,Tmax,[6]; Oral (10 mg/kg),0.25 h
same,bioavailability,[6]; Oral (10 mg/kg),85.1%
same,half-life,[6]; Oral (10 mg/kg),2.01 h
same,Cmax,[6]; [12],4190 ng/mL
same,clearance,"[6]; iv, I.V. (2 mg/kg)",7.35 mL/min/kg
same,half-life,"[6]; iv, I.V. (2 mg/kg)",4.62 h
same,Cmax,[6]; [13],2390 ng/mL
same,Vd,"[6]; iv, I.V. (2 mg/kg)",1.5 L/kg
same,Kd,TYK2 (JH2 domain),≤ 1 nM
same,IC50,[7],< 100 nM
same,Kd,JAK2 (JH1 domain),1000 to 10000 nM
same,Kd,JAK1 (JH2 domain),< 100 nM
[2H]C([2H])([2H])CC(=O)c1cnc(Nc2ccc(C(C)(C)O)c(F)n2)cc1Nc1cccc(-c2ncn(C([2H])([2H])[2H])n2)c1OC [Example 202],IC50,[1],100 to 1000 nM
same,AUC,[2]; Oral (2 mg/kg),555 ± 154 ng·h/mL
same,Tmax,[2]; Oral (2 mg/kg),1 h
same,bioavailability,[2]; Oral (2 mg/kg),55 ± 15%
same,half-life,[2]; Oral (2 mg/kg),1.59 ± 0.15 h
same,Cmax,[2]; [8],156 ± 53 ng/mL
same,AUC,"[2]; iv, I.V. (1 mg/kg)",504 ± 49 ng·h/mL
same,clearance,"[2]; iv, I.V. (1 mg/kg)",32.7 ± 3.1 mL/min/kg
same,half-life,"[2]; iv, I.V. (1 mg/kg)",1.74 ± 0.28 h
same,Cmax,[2]; [10],469 ± 255 ng/mL
same,Vd,"[2]; iv, I.V. (1 mg/kg)",4.21 ± 0.19 L/kg
same,AUC,[3]; Oral (5 mg/kg),210 ± 60 ng·h/mL
same,Tmax,[3]; Oral (5 mg/kg),4 ± 2 h
same,bioavailability,[3]; Oral (5 mg/kg),8.35 ± 2.4%
same,half-life,[3]; Oral (5 mg/kg),1.29 ± 0.24 h
same,Cmax,[3]; [9],50.1 ± 11 ng/mL
same,AUC,"[3]; iv, I.V. (1 mg/kg)",504 ± 58 ng·h/mL
same,clearance,"[3]; iv, I.V. (1 mg/kg)",33.1 ± 4 mL/min/kg
same,half-life,"[3]; iv, I.V. (1 mg/kg)",0.323 ± 0.035 h
same,Cmax,[3]; [10],1980 ± 101 ng/mL
same,Vd,"[3]; iv, I.V. (1 mg/kg)",0.653 ± 0.03 L/kg
same,IC50,[4],100 to 1000 nM
same,AUC,[6]; I.V. (2 mg/kg),1911
same,AUC,[6]; Oral (10 mg/kg),6395
same,Tmax,[6]; Oral (10 mg/kg),0.5 h
same,bioavailability,[6]; Oral (10 mg/kg),66.6%
same,half-life,[6]; Oral (10 mg/kg),3.27 h
same,Cmax,[6]; [12],1900 ng/mL
same,clearance,"[6]; iv, I.V. (2 mg/kg)",17.3 mL/min/kg
same,half-life,"[6]; iv, I.V. (2 mg/kg)",0.97 h
same,Cmax,[6]; [13],3340 ng/mL
same,Vd,"[6]; iv, I.V. (2 mg/kg)",0.785 L/kg
same,Kd,TYK2 (JH2 domain),≤ 1 nM
same,IC50,[7],< 100 nM
same,Kd,JAK2 (JH1 domain),100 to 1000 nM
same,Kd,JAK1 (JH2 domain),< 100 nM
